According to patent US11547722B2, “Bactericides and antifungal agents” (priority 2017, dated 2023):
≈ marks a conversion by molar mass, not a printed value. Like-named read-outs stand apart in the source and are kept apart here.

Tests used:
[1] = system: MSSA (Meticillin Sensitive Staphylococcus aureus, ATCC 29213); assay: MIC test on MSSA bacteria (serial two-fold dilution, 96-well plate)
[2] = system: MRSA (Meticillin Resistant Staphylococcus aureus, ATCC 43300); assay: MIC test on MRSA bacteria (serial two-fold dilution, 96-well plate)
[3] = Aqueous solubility of metal sulfides without and with solubilizing additive
Procedure: Mix the 90 mL of the SO4Cu solution with 10 mL of the Na2S solution. […] Separate it by filtration.
Place this precipitate in 100 mL of water in a stirred container.
With constant stirring, drop a very concentrated solution of NH3 into the water very slowly.
Mix the 97 mL of the NO3Ag solution with 3 mL of the Na2S solution. […] Separate it by filtration.
With constant stirring, drop very slowly a concentrated solution of ammonium citrate (NH4)5(C6H4O7)2H3.
Dissolve 77 mg of Cl3Au in 95 mL of water. Mix the 95 mL of the Cl3Au solution with 5 mL of the Na2S solution. […] Separate it by filtration.
While stirring constantly, drop a very concentrated solution of potassium dichromate very slowly.

[4] = aqueous solutions, 24 h at 37° C.

Cc1onc(-c2ccccc2)c1C(=O)N[C@@H]1C(=O)N2[C@@H]1SC(C)(C)[C@@H]2C(=O)O [Oxacilline, reference compound]
MIC ([1]; Staphylococcus aureus, 24 h, read-out: MIC MSSA): 0.25 µg/mL (≈ 0.623 µM)
MIC ([2]; Staphylococcus aureus, 24 h, read-out: MIC MRSA): 256 µg/mL (≈ 638 µM)

[Au+3].[Au+3].[S-2].[S-2].[S-2] [S3Au2, gold sulfide]
aqueous Au concentration reached ([3]; addition of potassium dichromate alone or an equimolar mixture of potassium dichromate and ammonia): at least 0.2 g/l
aqueous concentration in Au reached ([3]; addition of potassium dichromate, or potassium dichromate and ammonia, Example 3): at least 0.2 g.l^−1
maximum concentration in aqueous solution ([3]; without additive): undetectable
maximum concentration in water ([3]; without additive, Examples 1 and 3): undetectable

O=S(=O)([O-])[O-].[Cu+2] [V, copper sulfate]
MIC MSSA [1, 4]: 78 µg/mL
MIC MRSA [2, 4]: 78 to 157 µg/mL

copper sulfide [SCu]
aqueous concentration in Cu reached [3]: at least 0.2 g.l^−1
aqueous concentration of Cu reached [3]: ≥ 0.2 g/L
maximum concentration in aqueous solution [3]: 0.33 mg/L
maximum concentration in water [3]: 0.33 mg/L
